The target of this assay is T1, MAO-B (Mus musculus, UniProt Q8BW75).
T1 construct: a MAO-B substrate was added to a MAO-B enzyme-containing substance (ST and SN samples); from tissue; host or cells: mouse brain: striatum (ST) and substantia nigra (SN/SNpc) homogenate supernatant
T1 sequence (Q8BW75 1-520): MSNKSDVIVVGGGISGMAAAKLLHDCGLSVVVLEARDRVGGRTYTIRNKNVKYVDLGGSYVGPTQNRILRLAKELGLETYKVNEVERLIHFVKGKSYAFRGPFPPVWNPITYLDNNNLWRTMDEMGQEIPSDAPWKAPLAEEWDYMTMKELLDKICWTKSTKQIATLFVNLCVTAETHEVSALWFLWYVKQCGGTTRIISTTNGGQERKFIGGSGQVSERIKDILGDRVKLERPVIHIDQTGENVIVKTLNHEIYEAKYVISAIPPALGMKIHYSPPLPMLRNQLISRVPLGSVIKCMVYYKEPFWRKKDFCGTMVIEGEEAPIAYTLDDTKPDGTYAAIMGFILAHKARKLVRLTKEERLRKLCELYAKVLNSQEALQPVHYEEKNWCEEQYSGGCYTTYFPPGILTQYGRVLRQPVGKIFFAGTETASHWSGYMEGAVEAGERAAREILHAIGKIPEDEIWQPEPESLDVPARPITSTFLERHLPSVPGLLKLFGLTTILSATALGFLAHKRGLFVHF
The experiment in a line: Determination of MAO-B activity of ST and SN. The assay is classed as in vivo, mice (C57BL/6j). The settings on record: both ST and SN; MPTP 30 mg/kg mice; 5 mg/kg and 15 mg/kg p.o. The procedure:
40 mice were classified into five groups such that eight mice belonged to each group. After the habituation period, all mice were orally administered with a drug every day. While the mice of Groups 1 and 2 were administered with saline (p.o.), the mice of Groups 3, 4, and 5 were administered with 5 mg/kg ropinirole (p.o.), 5 mg/kg AKNS-2 (p.o.), and 15 mg/kg AKNS-2 (p.o.), respectively. From the 5th day therefrom, the mice of Group 1 were intraperitoneally administered with a saline at 1 hour after gavage feeding of saline, and the mice of Groups 2, 3, 4, and 5 were administered with 30 mg/kg MPTP (i.p.) at 1 hour after gavage feeding of saline, ropinirole, AKNS-2 (5 mg/kg), and AKNS-2 (15 mg/kg), respectively. […]
On the 7th day after the last administration of MPTP, SNpc and ST of each mouse were carefully excised and stored at −80° C. until use. […] A concentration of proteins contained in the supernatant was measured by the Bradford method. […]
A MAO-B assay kit of Promega Corporation (Woods Hollow Road, Madison, Wis., USA) was used to determine MAO-B activity of ST and SN according to the manufacturer's instructions. […] Luminescence signals were measured using an Infinite M1000 multimode microplate reader (TECAN, Männedorf, Switzerland). MAO-B activity was expressed as relative light unit (RLU)/mg protein).

Regarding `C[C@@H]1O[C@@H](O[C@@H]2[C@@H](O)[C@H](O[C@@H]3[C@@H](O[C@@H]4OC[C@@H](O)[C@H](O)[C@H]4O)[C@@H](O)[C@H](O[C@H]4[C@H](OC(=O)[C@]56CCC(C)(C)C[C@H]5C5=CC[C@@H]7[C@@]8(C)C[C@H](O)[C@H](O[C@@H]9O[C@H](CO)[C@@H](O)[C@H](O[C@@H]%10OC[C@@H](O)[C@H](O)[C@H]%10O)[C@H]9O)[C@@](C)(CO)[C@@H]8CC[C@@]7(C)[C@]5(C)C[C@H]6O)OC[C@H](O)[C@@H]4O)O[C@H]3C)OC[C@H]2O)[C@H](O)[C@H](O)[C@H]1O` [Compound 1, 3-O-β-D-xylopyranosyl-(1→3)-β-D-glucopyranosylpolygalacic acid 28-O-α-L-rhamnopyranosyl-(1→3)-β-D-xylopyranosyl-(1→4)-[β-D-xylopyranosyl-(1→3)]-α-L-rhamnopyranosyl-(1→2)-α-L-arabinopyranosyl ester], the “activity of MAO-B increased by MPTP” value is recorded as “could not reduce the activity of MAO-B”.

Values taken from patent publication US12234257B2, “Triterpene saponin derivative and use thereof” (KOREA INSTITUTE OF SCIENCE AND TECHNOLOGY, priority 2020, dated 2025).
